For test [1], the system named is T8R16/409 (RNA, aptamer) GCCUGCAAGUGCGACGAAUGGGAAAUAGCAAAAGAAAACAGAGACACCGACAUGUUAGAGACCACCGACGUG
Put plainly: isothermal titration calorimetry. As to conditions: 100 mM NaCl, 5 mM MgCl2, 50 mM HEPES, pH 7.6, 25 °C. In general terms: ITC needs no label: the signal is the heat of the interaction.

For test [2], the system named is T5R8/359 (RNA, aptamer) GGAUGAGCGACGCUGGAAGGAAGAAAAUGCAGAAAAAAAGAAAAAAAUGUCUGGGUCUGGCGACUGCUC
In words: isothermal titration calorimetry. To be noted: 100 mM NaCl, 5 mM MgCl2, 50 mM HEPES, pH 7.6, 25 °C.

The mark [3] stands for this setting: RNA 6 μM, nucleotide 100–200 μM in syringe.

`Nc1nc2c(ncn2[C@@H]2O[C@H](COP(=O)(O)OP(=O)(O)OP(=O)(O)O)[C@@H](O)[C@H]2O)c(=O)[nH]1`: in test [1] (one-site fit), the Kd is listed as ~ 0.5 μM. Also, in test [2] (setting [3]), the binding entry was “no”.
Regarding `Nc1ncnc2c1ncn2[C@@H]1O[C@H](COP(=O)(O)OP(=O)(O)OP(=O)(O)O)[C@@H](O)[C@H]1O`, in test [1] (setting [3]), the binding entry is given as “no”. Further, the Kd in test [2] (one-site fit with stoichiometry constrained to 0.5) is given as ~ 7 μM.

The values are drawn from publication PMC7615363 (2023).
